Molecules are shown by their SMILES.

Format in all cases: in vivo, rat
Assay [1] has as its system carrageenan-induced hind paw acute inflammation. Nature of the assay: Carrageenan hind paw acute inflammation model, mechanical allodynia (up-down method). The settings on record: Example 7, 24 h after carrageenan. How it is done: Animals were treated with saline (0.5% final), indomethacin, PEG, magnesium or combined PEG+magnesium solutions. Each animal received 2 injections, the first one 1 hour following carrageenan injection and the second injection 6 hours later. The total dose of PEG and magnesium chloride administered was of 2 and 0.135 g/kg (body weight) respectively. There were 10 animals per group.
Indomethacin (Fluka, cat. 57413, lot 450544/1) was dissolved in 25% hydroxyl-propyl beta cyclodextrin (hpBCD) by gentle heating and stirring. The PEG solution was composed of PEG3350 at 30% in 0.5% saline, the magnesium solution was composed of magnesium chloride at 2% and the combined PEG+magnesium solution was composed of 30% PEG3350+2% Magnesium Chloride (custom made by AAIPharma Developmental Services, Wilmington, N.C.). […]
Twenty-four hours following carrageenan injection into the left paw, the same paw was tested for mechanical allodynia. Baseline and post-treatment values for non-noxious mechanical sensitivity were evaluated using 8 Semmes-Weinstein filaments (Stoelting, Wood Dale, Ill., USA) with varying stiffness (0.4, 0.7, 1.2, 2.0, 3.6, 5.5, 8.5, and 15 g) according to the up-down method (Chaplan et al., 1994). […]
To evaluate the significance of difference between experimental groups, data were analyzed using an unpaired, two-tailed t statistical test with confidence intervals of 95%.
For orientation: In the carrageenan paw model, swelling and tenderness develop within hours.

Assay [2] relates to controlled cortical impact model of brain injury. Nature of the assay: Morris Water Maze test of cognitive function after controlled cortical impact TBI. An excerpt:
Male Sprague-Dawley rats (Harlan Sprague-Dawley, Indianapolis, Ind.), weighing 350-450 grams each were given free access to food and water before the experiment. The animals were anesthetized with halothane (1% in 70%/30% […] by mask).
The controlled cortical impact model of brain injury utilized in this study has been described in detail (Scheff and Sullivan, 1999). Animals were anesthetized with isoflorane and placed in a stereotaxic frame in the […] position. A 6 mm craniotomy located approximately midway between bregma and lambda, just above the somatosensory cortex, was made using a Michele trephine. The skull disk was then removed without disturbing the underlying dura mater. The exposed brain was injured using an electronically controlled piston (5 mm diameter, 65 kdynes). The animals in the “sham” group underwent identical surgical procedures, but the surface of the brain was not impacted.
Following surgery, animals were placed in their home cage and dosing was initiated. Animals were treated with saline (Group 1: sham, Group 2: injured), PEG (Group 3: injured), magnesium (Group 4: injured) or a combination of PEG and magnesium solutions (Group 5: injured). The PEG solution was composed of PEG3350 at 30% in 0.5% saline (custom made by AAIPharma Developmental Services, Wilmington, N.C.). […] The magnesium solution was diluted in saline 1:1 before intravenous injection as recommended by the manufacturer. In the cases of combined PEG+Mg combined treatments, animal received the PEG and magnesium components from two individual solutions.
The first two injections were administered 15 minutes following injury. Another round of two injections was given 6 hours later. […] The compounds tested were administered by bolus intravenous injection. There were 10 animals per group.
This behavioral endpoint measure the ability of the rat to learn a new task based on the memorization of spatial cues. […]. […]
To evaluate the significance of difference between experimental groups, data were analyzed using an unpaired, two-tailed t statistical test with confidence intervals of 95%. […]

The test system of assay [3] is spinal cord contusion (T10, pneumatic impactor). Nature of the assay: Spinal cord lesion volume after spinal cord contusion (dural impact). The settings on record: Example 4, total PEG 2 g/kg, magnesium sulfate 0.12 g/kg i.v., PEG change not statistically significant.
Text: Sprague-Dawley female rats (200-225 gm) received a spinal cord contusion using the Precision Scientific Inc pneumatic impactor. Prior to surgery, rats were assigned to different treatment groups based on a randomized block design so that on any given surgery day all treatments would be included. […] The vertebral column was stabilized with angled clamps on the upper thoracic (T8) and lumbar (T11) levels and the impactor with a tip diameter of 2 mm was delivered at approximately 50 kd onto the exposed, intact dura overlying the dorsal spinal cord. The impactor was immediately removed, the wound irrigated with saline, and the muscle and skin openings sutured together. Female animals were used due to the paralysis associated with the injury and ease of voiding the bladder.
At the end of the study, the spinal cords were extracted and fixed in 4% paraformaldehyde. […] Tissue sparing was determined by computed image analysis be from 10 evenly spaced sections through the injured T10 segment. […]
Assay [4] deals with controlled clip-compression injury at T4. Kind of assay: Neuropathic pain (mechanical allodynia, Semmes-Weinstein monofilament) after SCI. The settings on record: Example 6; mechanical allodynia up to 3 weeks post-injury. The protocol: Animals were prepared as described in Example 3. Animals were tested for the development of neuropathic pain before and up to 3 weeks post-injury. Neuropathic pain occurrence and severity was evaluated by the response of the animal to a stimulus that is normally not painful or allodynia. […] The monofilament was applied 10 times for 3 seconds, with each stimulus being separated by a 5 second interval, and the number of avoidance responses out of a possible 10 were recorded. Avoidance responses were defined as flinching, escape, vocalization, or abnormal aggressive behaviors. The scoring system used to monitor mechanical allodynia has been presented in details in Gris et al., 2004. Mechanical allodynia testing was conducted twice per week and the 2 tests were averaged for each animal and reported as a weekly pain score. To evaluate the significance of difference between experimental groups, data were analyzed using an unpaired, two-tailed t statistical test with confidence intervals of 95%. The Welch's modification was also used to analyze the motor recovery to take in account the significant variability in the control group.

`[Cl-].[Cl-].[Mg+2]` [magnesium chloride]: the “effect on the pain score relative to animals treated with saline” value in assay [1] (total PEG 2 g/kg, magnesium chloride 0.135 g/kg) is recorded as “no significant effect”. In addition, the “effect on cognitive recovery after TBI” value in assay [2] (Example 2, total 1.4 g/kg PEG, 0.230 mmol/kg magnesium chloride, 2 injections 15 min and 6 h post-TBI) is “no significant effect”. In addition, in assay [2] (summary statement in description), the “effect on the loss of cognitive functions following brain injury” value is recorded as “no effect”.
Take `O=S(=O)([O-])[O-].[Mg+2]` [Mg, magnesium sulfate]: the “reduction of the lesion volume relative to control group (SCI-Saline)” value in assay [3] is listed as 33%. For the same compound, the “effect on the development of neuropathic pain after SCI” value in assay [4] was “no significant effect”. Further, in assay [2] (Example 1, i.v. 15 min and 6 h post-injury, total PEG 1.4 g/kg, magnesium sulfate 0.230 mmol/kg, Morris Water Maze day 9-14), the “effect on cognitive functions following TBI” value was “no effect”.
`COc1ccc2c(c1)c(CC(=O)O)c(C)n2C(=O)c1ccc(Cl)cc1` [Indomethacin]: the “mean pain score (mechanical allodynia)” value in assay [1] (carrageenan-saline 3.4+/−0.5, sham 12.7+/−1.1, higher is better) was 5.6+/−0.9.
